According to ChEMBL document CHEMBL4007472, “Identification of novel TACE inhibitors compatible with topical application” (Bioorg Med Chem Lett, 2017):
pIC50: −log10 of the molar value. ≈ marks a conversion by molar mass, not a printed value.

Assays:
[1] = target: T1, Disintegrin and metalloproteinase domain-containing protein 10 (Homo sapiens, UniProt O14672); assay: Inhibition of ADAM10 (unknown origin)
T1 sequence (O14672 whole entry): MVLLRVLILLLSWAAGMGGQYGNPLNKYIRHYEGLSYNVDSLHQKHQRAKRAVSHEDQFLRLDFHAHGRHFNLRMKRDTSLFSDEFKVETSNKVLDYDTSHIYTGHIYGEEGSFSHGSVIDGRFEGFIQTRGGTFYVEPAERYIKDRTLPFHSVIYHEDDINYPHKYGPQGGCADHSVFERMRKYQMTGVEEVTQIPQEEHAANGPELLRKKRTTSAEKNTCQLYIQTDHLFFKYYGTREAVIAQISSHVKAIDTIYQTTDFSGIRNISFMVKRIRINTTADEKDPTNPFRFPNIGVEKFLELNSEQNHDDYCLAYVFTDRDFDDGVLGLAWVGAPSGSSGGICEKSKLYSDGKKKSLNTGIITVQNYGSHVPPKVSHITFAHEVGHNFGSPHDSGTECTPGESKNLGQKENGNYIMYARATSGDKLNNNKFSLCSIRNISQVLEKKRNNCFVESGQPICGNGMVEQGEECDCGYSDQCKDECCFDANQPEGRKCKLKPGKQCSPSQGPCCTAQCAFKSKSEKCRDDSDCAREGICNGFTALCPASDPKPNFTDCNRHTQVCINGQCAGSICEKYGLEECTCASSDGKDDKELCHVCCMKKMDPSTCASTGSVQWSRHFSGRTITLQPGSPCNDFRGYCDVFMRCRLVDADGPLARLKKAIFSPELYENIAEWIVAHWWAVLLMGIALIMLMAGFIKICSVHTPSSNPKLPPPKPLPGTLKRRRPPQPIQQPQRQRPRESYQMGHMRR

[2] = Solubility of the compound in PG/EtOH96; type: physicochemical
[3] = target: Macrophage metalloelastase (Homo sapiens, UniProt P39900); assay: Inhibition of MMP12 (unknown origin)
Stromelysin-1 = Stromelysin-1 (Homo sapiens, UniProt P08254); assay: Inhibition of MMP3 (unknown origin)
[4] = Aqueous solubility of the compound; type: physicochemical
[5] = Stability in human liver microsomes assessed as parent compound remaining at 1 uM after 15 mins by LC-MS/MS analysis; type: ADME, microsome; settings: read-out: Stability
[6] = target: T2, Disintegrin and metalloproteinase domain-containing protein 17 (Homo sapiens, UniProt P78536); assay: Inhibition of recombinant human TACE catalytic domain using Mca-Pro-Leu-Ala-Gln-Ala-Val-Dpa-Arg-Ser-Ser-Ser-Arg-NH2 as substrate after 2 hrs by fluorescence assay
[7] = Intrinsic clearance in human hepatocytes assessed per million cells at 1 uM up to 90 mins by LC-MS/MS analysis; type: ADME, cell-based, Hepatocyte; settings: read-out: CLH
[8] = target: Matrix metalloproteinase-9 (Homo sapiens, UniProt P14780); assay: Inhibition of MMP9 (unknown origin)
[9] = Half life in human keratinocytes at 1 uM by LC-MS/MS analysis; type: ADME, cell-based, Keratinocyte
[10] = Photoirritancy factor, ratio of EC50 for human neonatal keratinocytes under dark condition to EC50 for human neonatal keratinocytes under 5 J/cm2 UV light exposure; design: species or system Neonatal keratinocyte
Interstitial collagenase = target: T3, Interstitial collagenase (Homo sapiens, UniProt P03956); assay: Inhibition of recombinant human MMP1 catalytic domain using Mca-Pro-Leu-Gly-Leu-Dpa-Ala-Arg-NH2 as substrate after 10 mins by fluorescence assay
T3 sequence (P03956 whole entry): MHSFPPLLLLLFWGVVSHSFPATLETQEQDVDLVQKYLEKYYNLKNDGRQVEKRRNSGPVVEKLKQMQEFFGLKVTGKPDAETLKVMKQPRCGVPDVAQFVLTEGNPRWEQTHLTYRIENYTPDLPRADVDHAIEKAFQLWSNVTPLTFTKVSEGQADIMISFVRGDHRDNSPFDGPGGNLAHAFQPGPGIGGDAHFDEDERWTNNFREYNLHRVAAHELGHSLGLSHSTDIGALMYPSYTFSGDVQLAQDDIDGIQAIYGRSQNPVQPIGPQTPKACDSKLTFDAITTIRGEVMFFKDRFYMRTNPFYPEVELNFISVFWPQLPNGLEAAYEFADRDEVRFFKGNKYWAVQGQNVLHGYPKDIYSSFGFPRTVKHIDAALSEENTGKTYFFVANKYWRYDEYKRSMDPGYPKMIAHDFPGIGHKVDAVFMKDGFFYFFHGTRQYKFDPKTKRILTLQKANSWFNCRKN

[11] = Fraction unbound in human plasma at 5 uM after 4 hrs by LC-MS/MS based equilibrium dialysis method; type: ADME, cell-free
[12] = target: T2, Disintegrin and metalloproteinase domain-containing protein 17; assay: Inhibition of TACE in NHEK assessed as reduction in LPS/TPA-stimulated TNFalpha production preincubated for 1 hr followed by LPS/TPA stimulation for 24 hrs by HTRF assay
[13] = target: T4, Disintegrin and metalloproteinase domain-containing protein 9 (Homo sapiens, UniProt Q13443); assay: Inhibition of ADAM9 (unknown origin)
T4 sequence (Q13443 whole entry): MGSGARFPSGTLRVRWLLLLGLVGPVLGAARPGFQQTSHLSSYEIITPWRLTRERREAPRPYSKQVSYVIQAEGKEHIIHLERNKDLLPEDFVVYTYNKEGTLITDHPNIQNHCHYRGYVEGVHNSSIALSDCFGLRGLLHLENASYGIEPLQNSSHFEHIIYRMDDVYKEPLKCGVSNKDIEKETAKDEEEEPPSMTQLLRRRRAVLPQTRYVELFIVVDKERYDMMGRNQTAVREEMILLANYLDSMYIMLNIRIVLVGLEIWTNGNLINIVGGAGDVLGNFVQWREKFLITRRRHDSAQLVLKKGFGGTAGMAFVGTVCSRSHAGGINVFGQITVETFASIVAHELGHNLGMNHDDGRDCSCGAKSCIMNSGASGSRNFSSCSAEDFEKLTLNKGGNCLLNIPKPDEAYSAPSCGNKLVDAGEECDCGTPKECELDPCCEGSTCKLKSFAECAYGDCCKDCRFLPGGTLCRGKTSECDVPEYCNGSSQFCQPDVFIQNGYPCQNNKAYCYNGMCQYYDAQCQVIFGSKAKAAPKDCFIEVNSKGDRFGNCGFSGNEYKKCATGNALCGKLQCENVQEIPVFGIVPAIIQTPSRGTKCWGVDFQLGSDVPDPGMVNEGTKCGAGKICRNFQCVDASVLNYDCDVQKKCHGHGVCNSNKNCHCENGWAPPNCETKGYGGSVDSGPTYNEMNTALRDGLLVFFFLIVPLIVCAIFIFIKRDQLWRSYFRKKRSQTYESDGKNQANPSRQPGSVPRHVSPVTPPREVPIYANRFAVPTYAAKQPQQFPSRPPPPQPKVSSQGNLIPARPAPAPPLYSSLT

[14] = target: T2, Disintegrin and metalloproteinase domain-containing protein 17; assay: Inhibition of TACE in human PBMC assessed as inhibition of TNFalpha production

T2 sequence (P78536 whole entry, the tested form may be a part): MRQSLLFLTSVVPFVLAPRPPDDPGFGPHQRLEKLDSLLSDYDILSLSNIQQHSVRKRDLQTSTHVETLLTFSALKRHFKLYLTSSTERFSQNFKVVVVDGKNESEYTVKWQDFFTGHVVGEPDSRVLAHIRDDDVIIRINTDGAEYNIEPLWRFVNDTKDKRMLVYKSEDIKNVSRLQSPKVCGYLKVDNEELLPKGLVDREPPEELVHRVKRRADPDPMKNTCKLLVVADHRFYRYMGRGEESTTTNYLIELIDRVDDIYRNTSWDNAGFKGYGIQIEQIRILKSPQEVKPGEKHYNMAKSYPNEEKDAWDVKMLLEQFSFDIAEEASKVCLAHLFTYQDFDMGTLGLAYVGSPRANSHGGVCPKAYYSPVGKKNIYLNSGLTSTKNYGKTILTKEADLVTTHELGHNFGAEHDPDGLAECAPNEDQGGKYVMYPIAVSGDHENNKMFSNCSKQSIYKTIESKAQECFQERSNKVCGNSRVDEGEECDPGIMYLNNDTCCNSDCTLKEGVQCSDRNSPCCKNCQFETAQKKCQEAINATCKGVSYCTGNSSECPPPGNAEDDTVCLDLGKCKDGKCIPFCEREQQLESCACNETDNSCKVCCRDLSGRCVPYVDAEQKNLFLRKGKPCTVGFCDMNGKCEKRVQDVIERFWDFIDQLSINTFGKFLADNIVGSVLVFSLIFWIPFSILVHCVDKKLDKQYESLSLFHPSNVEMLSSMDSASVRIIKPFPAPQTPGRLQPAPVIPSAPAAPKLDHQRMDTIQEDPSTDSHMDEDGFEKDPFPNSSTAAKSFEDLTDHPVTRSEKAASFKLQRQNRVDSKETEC
Sequence of Macrophage metalloelastase (P39900 whole entry): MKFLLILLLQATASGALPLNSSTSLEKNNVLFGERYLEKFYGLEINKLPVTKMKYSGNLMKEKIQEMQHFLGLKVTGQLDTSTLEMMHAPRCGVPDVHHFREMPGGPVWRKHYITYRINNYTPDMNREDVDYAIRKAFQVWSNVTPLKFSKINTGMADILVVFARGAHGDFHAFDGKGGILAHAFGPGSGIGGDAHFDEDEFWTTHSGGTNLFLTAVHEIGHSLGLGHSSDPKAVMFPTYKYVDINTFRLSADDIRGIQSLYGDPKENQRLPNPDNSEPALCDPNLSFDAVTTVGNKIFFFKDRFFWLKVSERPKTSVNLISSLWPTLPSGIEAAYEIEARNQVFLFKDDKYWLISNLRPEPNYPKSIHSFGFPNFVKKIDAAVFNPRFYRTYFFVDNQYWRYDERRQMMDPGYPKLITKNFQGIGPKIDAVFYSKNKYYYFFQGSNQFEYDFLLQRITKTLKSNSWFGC
Sequence of Matrix metalloproteinase-9 (P14780 whole entry): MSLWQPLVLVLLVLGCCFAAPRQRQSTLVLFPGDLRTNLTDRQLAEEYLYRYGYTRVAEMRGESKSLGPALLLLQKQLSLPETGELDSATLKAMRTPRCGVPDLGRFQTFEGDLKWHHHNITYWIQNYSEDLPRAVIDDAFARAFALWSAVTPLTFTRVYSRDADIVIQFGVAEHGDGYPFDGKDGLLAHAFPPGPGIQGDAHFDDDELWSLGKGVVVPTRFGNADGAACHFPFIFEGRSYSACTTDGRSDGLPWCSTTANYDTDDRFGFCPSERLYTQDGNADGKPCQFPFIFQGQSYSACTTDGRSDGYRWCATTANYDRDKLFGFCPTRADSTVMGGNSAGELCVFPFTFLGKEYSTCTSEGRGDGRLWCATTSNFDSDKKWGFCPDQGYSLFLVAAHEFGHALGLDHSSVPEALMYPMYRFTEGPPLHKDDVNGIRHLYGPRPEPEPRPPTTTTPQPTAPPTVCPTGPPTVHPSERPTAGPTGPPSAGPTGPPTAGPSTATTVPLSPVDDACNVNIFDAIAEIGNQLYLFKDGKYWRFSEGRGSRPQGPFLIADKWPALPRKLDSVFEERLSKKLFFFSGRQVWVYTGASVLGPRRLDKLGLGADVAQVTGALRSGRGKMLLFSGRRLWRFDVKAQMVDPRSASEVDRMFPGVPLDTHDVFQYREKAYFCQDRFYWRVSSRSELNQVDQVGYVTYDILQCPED
Sequence of Stromelysin-1 (P08254 whole entry): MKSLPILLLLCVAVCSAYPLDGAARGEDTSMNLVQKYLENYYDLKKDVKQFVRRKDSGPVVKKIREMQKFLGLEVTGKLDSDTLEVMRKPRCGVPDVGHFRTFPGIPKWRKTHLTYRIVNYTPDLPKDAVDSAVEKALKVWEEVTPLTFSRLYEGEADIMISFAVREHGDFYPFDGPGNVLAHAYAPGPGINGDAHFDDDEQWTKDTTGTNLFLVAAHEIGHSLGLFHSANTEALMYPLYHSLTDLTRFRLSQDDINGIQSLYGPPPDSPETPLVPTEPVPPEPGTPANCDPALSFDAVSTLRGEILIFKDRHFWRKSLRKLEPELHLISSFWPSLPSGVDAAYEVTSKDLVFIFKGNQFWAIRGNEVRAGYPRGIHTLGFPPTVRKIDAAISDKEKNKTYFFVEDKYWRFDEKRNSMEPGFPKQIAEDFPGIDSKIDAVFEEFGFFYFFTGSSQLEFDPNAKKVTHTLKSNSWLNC

Compound	pIC50 [1]	solubility [2]	pIC50 [3]	pIC50 (Stromelysin-1)	solubility [4]	remaining at […], 1 µM [5]	pIC50 [6]	hepatocyte CLint at […], 1 µM [7]	pIC50 [8]	half-life at 1 µM [9]	Ratio EC50 [10]	pIC50 (Interstitial collagenase)	fraction unbound at 4 h, 5 µM [11]	pIC50 [12]	pIC50 [13]	pIC50 [14]
Cc1cc(COc2ccc(S(=O)(=O)N3CCN(C(=O)C(C)(C)C)C(C(=O)NO)C3)cc2)c2c(n1)CCCC2 (centres undefined)	< 5.00	> 55 µM	6.03	< 5.00	20 µM (≈ 10.9 µg/mL)	47%	7.92	14 µL/min/1e6 cells	< 5.00	> 24 h	1	< 5.00	0.03	5.89	< 5.00	–
CC1(C)SCCN(S(=O)(=O)c2ccc(OCC#CCO)cc2)[C@H]1C(=O)NO	–	–	–	–	90 µM (≈ 37.3 µg/mL)	–	8.40	–	–	–	–	–	–	6.92	–	6.80
